Assay results published in US20220033397A1, “PHARMACEUTICAL COMPOUNDS AND THEIR USE AS INHIBITORS OF UBIQUITIN SPECIFIC PROTEASE 19 (USP19)” (ALMAC DISCOVERY LIMITED, priority 2018, published 2022).

What follows are compounds tested against T1, Full-length USP19 (Homo sapiens, UniProt O94966) (assay: USP19 fluorescence polarisation (FP) homogeneous assay with Ubiquitin-Lys-TAMRA substrate). Conditions: 2.5 nM USP19, 30 min pre-incubation, average of at least two duplicate experiments.
T1 construct: Full-length USP19 was purchased from Boston Biochem (E-576); purchased Boston Biochem E-576
T1 sequence (O94966 1-1318): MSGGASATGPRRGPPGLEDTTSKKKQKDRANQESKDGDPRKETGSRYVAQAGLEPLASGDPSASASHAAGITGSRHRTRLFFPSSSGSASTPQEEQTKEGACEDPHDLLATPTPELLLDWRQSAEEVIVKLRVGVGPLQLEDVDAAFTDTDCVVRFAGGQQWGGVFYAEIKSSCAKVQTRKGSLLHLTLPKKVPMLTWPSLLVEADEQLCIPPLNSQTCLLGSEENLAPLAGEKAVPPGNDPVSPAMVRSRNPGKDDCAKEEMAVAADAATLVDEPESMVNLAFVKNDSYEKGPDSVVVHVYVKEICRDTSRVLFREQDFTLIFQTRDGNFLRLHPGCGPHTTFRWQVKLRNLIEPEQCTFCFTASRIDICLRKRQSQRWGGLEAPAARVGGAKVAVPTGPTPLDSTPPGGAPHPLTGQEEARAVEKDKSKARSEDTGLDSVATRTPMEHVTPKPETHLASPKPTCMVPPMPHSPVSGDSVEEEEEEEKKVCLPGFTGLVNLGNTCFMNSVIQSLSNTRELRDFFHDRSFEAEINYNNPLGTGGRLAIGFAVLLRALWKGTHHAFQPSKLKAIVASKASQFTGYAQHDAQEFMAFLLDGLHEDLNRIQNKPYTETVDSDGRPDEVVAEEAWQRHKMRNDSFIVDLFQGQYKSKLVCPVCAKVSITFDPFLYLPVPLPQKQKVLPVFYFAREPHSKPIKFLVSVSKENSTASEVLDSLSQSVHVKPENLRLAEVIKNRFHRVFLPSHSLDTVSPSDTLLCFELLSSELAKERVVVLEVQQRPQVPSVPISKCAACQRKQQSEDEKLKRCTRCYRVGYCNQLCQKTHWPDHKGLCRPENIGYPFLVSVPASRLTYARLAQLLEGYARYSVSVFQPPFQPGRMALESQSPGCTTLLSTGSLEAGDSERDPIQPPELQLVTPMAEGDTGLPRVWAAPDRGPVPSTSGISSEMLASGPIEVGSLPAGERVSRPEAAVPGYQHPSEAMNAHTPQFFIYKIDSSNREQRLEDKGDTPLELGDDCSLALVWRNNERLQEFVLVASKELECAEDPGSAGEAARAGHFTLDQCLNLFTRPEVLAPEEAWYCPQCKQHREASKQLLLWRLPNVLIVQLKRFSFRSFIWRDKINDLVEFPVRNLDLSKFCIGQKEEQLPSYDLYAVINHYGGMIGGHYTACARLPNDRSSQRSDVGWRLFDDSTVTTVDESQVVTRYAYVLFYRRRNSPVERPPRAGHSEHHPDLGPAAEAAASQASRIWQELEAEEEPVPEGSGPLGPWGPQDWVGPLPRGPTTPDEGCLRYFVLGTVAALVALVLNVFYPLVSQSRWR
Type: biochemical
Summary of the method: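 Full-length USP19 preincubated 30 min at RT with inhibitor (200 μM to 2 μM series, 8–18 points) before adding 500 nM Ubiquitin-Lys-TAMRA substrate.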

Row | IC50 [µM] | Structure (SMILES)
1 | < 0.5 | O=C(N1CCC(O)(Cn2cnc3cc(F)c(F)cc3c2=O)C2(CCCC2)C1)N1CCNC[C@H]1c1ccccc1 (stereo partly drawn) [Example 170, 6,7-Difluoro-3-((10-hydroxy-7-((R)-2-phenylpiperazine-1-carbonyl)-7-azaspiro[4.5]decan-10-yl)methyl)quinazolin-4(3H)-one]
2 | < 0.5 | O=C(N1CCC(O)(Cn2cnc3c(cnn3Cc3ccccc3)c2=O)C2(CCCC2)C1)N1CCNC[C@H]1c1ccccc1 (stereo partly drawn) [Example 172, 1-Benzyl-5-((10-hydroxy-7-((R)-2-phenylpiperazine-1-carbonyl)-7-azaspiro[4.5]decan-10-yl)methyl)-1,5-dihydro-4H-pyrazolo[3,4-d]pyrimidin-4-one]
3 | 5 to 50 | C[C@H](CC1CCCCC1)C(=O)N1CCC(O)(Cn2cnc3cn(C)nc3c2=O)C2(CCCC2)C1 (stereo partly drawn) [Example 173, 6-((7-((R)-3-Cyclohexyl-2-methylpropanoyl)-10-hydroxy-7-azaspiro[4.5]decan-10-yl)methyl)-2-methyl-2,6-dihydro-7H-pyrazolo[4,3-d]pyrimidin-7-one]
4 | 5 to 50 | C[C@H](CC1CCCCC1)C(=O)N1CCC(O)(Cn2c(=O)c3cncnc3n2C)C2(CCCC2)C1 (stereo partly drawn) [Example 174, 2-((7-((R)-3-Cyclohexyl-2-methylpropanoyl)-10-hydroxy-7-azaspiro[4.5]decan-10-yl)methyl)-1-methyl-1,2-dihydro-3H-pyrazolo[3,4-d]pyrimidin-3-one]
5 | < 0.5 | C[C@H](CC1CCCCC1)C(=O)N1CCC(O)(Cn2cnc3c(cnn3-c3ccccc3)c2=O)C2(CCCC2)C1 (stereo partly drawn) [Example 176, 5-((7-((R)-3-Cyclohexyl-2-methylpropanoyl)-10-hydroxy-7-azaspiro[4.5]decan-10-yl)methyl)-1-phenyl-1,5-dihydro-4H-pyrazolo[3,4-d]pyrimidin-4-one]
6 | 5 to 50 | C[C@H](CC(F)(F)F)C(=O)N1CCC(O)(Cn2cnc3c(cnn3C)c2=O)C2(CCCC2)C1 (stereo partly drawn) [Example 180, 5-((10-Hydroxy-7-((R)-4,4,4-trifluoro-2-methylbutanoyl)-7-azaspiro[4.5]decan-10-yl)methyl)-1-methyl-1,5-dihydro-4H-pyrazolo[3,4-d]pyrimidin-4-one]
7 | 5 to 50 | C[C@H](CC(F)(F)F)C(=O)N1CCC(O)(Cn2cnc3c(cnn3C3CC3)c2=O)C2(CCCC2)C1 (stereo partly drawn) [Example 181, 1-Cyclopropyl-5-((10-hydroxy-7-((R)-4,4,4-trifluoro-2-methylbutanoyl)-7-azaspiro[4.5]decan-10-yl)methyl)-1,5-dihydro-4H-pyrazolo[3,4-d]pyrimidin-4-one]
8 | < 0.5 | Cn1ncc2c(=O)n(CC3(O)CCN(C(=O)N4CCNC[C@H]4c4ccccc4)CC34CCCC4)cnc21 (stereo partly drawn) [Example 182, 5-((10-Hydroxy-7-((R)-2-phenylpiperazine-1-carbonyl)-7-azaspiro[4.5]decan-10-yl)methyl)-1-methyl-1,5-dihydro-4H-pyrazolo[3,4-d]pyrimidin-4-one]
9 | < 0.5 | CSc1cn(CC2(O)CCN(C(=O)N3CCNC[C@H]3c3ccccc3)CC23CCCC3)c(=O)cc1-c1ccccc1 (stereo partly drawn) [Example 186, 1-((10-Hydroxy-7-((R)-2-phenylpiperazine-1-carbonyl)-7-azaspiro[4.5]decan-10-yl)methyl)-5-(methylthio)-4-phenylpyridin-2(1H)-one]
10 | < 0.5 | CS(=O)(=O)c1cn(CC2(O)CCN(C(=O)N3CCNC[C@H]3c3ccccc3)CC23CCCC3)c(=O)cc1-c1ccccc1 (stereo partly drawn) [Example 188, 1-((10-Hydroxy-7-((R)-2-phenylpiperazine-1-carbonyl)-7-azaspiro[4.5]decan-10-yl)methyl)-5-(methylsulfonyl)-4-phenylpyridin-2(1H)-one]

Further lines, the compound ahead of its results:

Row | Structure (SMILES) | IC50 [µM]
11 | C[C@H](CC(F)(F)F)C(=O)N1CCC(O)(Cn2cnc3c(cnn3Cc3ccccc3)c2=O)C2(CCCC2)C1 (stereo partly drawn) [Example 168, 1-Benzyl-5-((10-hydroxy-7-((R)-4,4,4-trifluoro-2-methylbutanoyl)-7-azaspiro[4.5]decan-10-yl)methyl)-1,5-dihydro-4H-pyrazolo[3,4-d]pyrimidin-4-one] | 5 to 50
12 | O=C(N1CCC(O)(Cn2cnc3ccc(F)cc3c2=O)C2(CCCC2)C1)N1CCNC[C@H]1c1ccccc1 (stereo partly drawn) [Example 169, 6-Fluoro-3-((10-hydroxy-7-((R)-2-phenylpiperazine-1-carbonyl)-7-azaspiro[4.5]decan-10-yl)methyl)quinazolin-4(3H)-one] | < 0.5
13 | O=C(N1CCC(O)(Cn2ccc3ccncc3c2=O)C2(CCCC2)C1)N1CCNC[C@H]1c1ccccc1 (stereo partly drawn) [Example 171, 2-((10-Hydroxy-7-((R)-2-phenylpiperazine-1-carbonyl)-7-azaspiro[4.5]decan-10-yl)methyl)-2,7-naphthyridin-1(2H)-one] | < 0.5
14 | Cn1c2ncncc2c(=O)n1CC1(O)CCN(C(=O)N2CCNC[C@H]2c2ccccc2)CC12CCCC2 (stereo partly drawn) [Example 175, 2-((10-Hydroxy-7-((R)-2-phenylpiperazine-1-carbonyl)-7-azaspiro[4.5]decan-10-yl)methyl)-1-methyl-1,2-dihydro-3H-pyrazolo[3,4-d]pyrimidin-3-one] | 5 to 50
15 | C[C@H](CC(F)(F)F)C(=O)N1CCC(O)(Cn2cnc3c(cnn3-c3ccccc3)c2=O)C2(CCCC2)C1 (stereo partly drawn) [Example 177, 5-((10-Hydroxy-7-((R)-4,4,4-trifluoro-2-methylbutanoyl)-7-azaspiro[4.5]decan-10-yl)methyl)-1-phenyl-1,5-dihydro-4H-pyrazolo[3,4-d]pyrimidin-4-one] | 5 to 50
16 | O=C(N1CCC(O)(Cn2cnc3c(cnn3-c3ccccc3)c2=O)C2(CCCC2)C1)N1CCNC[C@H]1c1ccccc1 (stereo partly drawn) [Example 178, 5-((10-Hydroxy-7-((R)-2-phenylpiperazine-1-carbonyl)-7-azaspiro[4.5]decan-10-yl)methyl)-1-phenyl-1,5-dihydro-4H-pyrazolo[3,4-d]pyrimidin-4-one] | < 0.5
17 | Cn1cc2ncn(CC3(O)CCN(C(=O)N4CCNC[C@H]4c4ccccc4)CC34CCCC4)c(=O)c2n1 (stereo partly drawn) [Example 179, 6-((10-Hydroxy-7-((R)-2-phenylpiperazine-1-carbonyl)-7-azaspiro[4.5]decan-10-yl)methyl)-2-methyl-2,6-dihydro-7H-pyrazolo[4,3-d]pyrimidin-7-one] | 5 to 50
18 | O=C(N1CCC(O)(Cn2cnc3c(cnn3C3CC3)c2=O)C2(CCCC2)C1)N1CCNC[C@H]1c1ccccc1 (stereo partly drawn) [Example 183, 1-Cyclopropyl-5-((10-hydroxy-7-((R)-2-phenylpiperazine-1-carbonyl)-7-azaspiro[4.5]decan-10-yl)methyl)-1,5-dihydro-4H-pyrazolo[3,4-d]pyrimidin-4-one] | < 0.5
19 | CSc1ncc2c(=O)n(C[C@]3(O)CCN(C(=O)N4CCNC[C@H]4c4ccccc4)CC34CCCC4)ccc2n1 [Example 184, 6-(((S)-10-Hydroxy-7-((R)-2-phenylpiperazine-1-carbonyl)-7-azaspiro[4.5]decan-10-yl)methyl)-2-(methylthio)pyrido[4,3-d]pyrimidin-5(6H)-one] | < 0.5
20 | O=C(N1CC[C@@](O)(Cn2ccc3ncncc3c2=O)C2(CCCC2)C1)N1CCNC[C@H]1c1ccccc1 [Example 185, 6-(((S)-10-Hydroxy-7-((R)-2-phenylpiperazine-1-carbonyl)-7-azaspiro[4.5]decan-10-yl)methyl)pyrido[4,3-d]pyrimidin-5(6H)-one] | < 0.5
21 | C[S+]([O-])c1cn(CC2(O)CCN(C(=O)N3CCNC[C@H]3c3ccccc3)CC23CCCC3)c(=O)cc1-c1ccccc1 (stereo partly drawn) [Example 187, 1-((10-Hydroxy-7-((R)-2-phenylpiperazine-1-carbonyl)-7-azaspiro[4.5]decan-10-yl)methyl)-5-(methylsulfinyl)-4-phenylpyridin-2(1H)-one] | < 0.5
22 | CS(=N)(=O)c1cn(CC2(O)CCN(C(=O)N3CCNC[C@H]3c3ccccc3)CC23CCCC3)c(=O)cc1-c1ccccc1 (stereo partly drawn) [Example 189, 1-((10-Hydroxy-7-((R)-2-phenylpiperazine-1-carbonyl)-7-azaspiro[4.5]decan-10-yl)methyl)-5-(S-methylsulfonimidoyl)-4-phenylpyridin-2(1H)-one] | < 0.5
